Laboratory results as given in US6777425B2, “Isoquinoline compounds having antiinfective activity” (Genesoft Pharmaceuticals, Inc., priority 2001, dated 2004).
Converted amounts (≈) assume the structure as drawn.

Columns and labels:
[1] = tested on: B. cereus ATCC 11778; experiment: NCCLS broth microdilution MIC, B. cereus; type: cell-based, Bacillus cereus; conditions: organism A = B. cereus ATCC 11778; for MIC: Bacillus cereus, ATCC11778, read-out: Minimum Inhibitory Concentration (MIC)
Excerpt: (§1) Compounds according to this invention were screened for their in vitro activities against selected species of bacteria and fungi. […]

[2] = tested on: C. albicans ATCC 38247; experiment: Antifungal MIC, C. albicans; type: cell-based, Candida albicans; conditions: organism B = C. albicans ATCC 38247; for MIC: Candida albicans, ATCC38247, read-out: Minimum Inhibitory Concentration (MIC)
Excerpt: as §1

[3] = tested on: E. faecalis ATCC 29212; experiment: NCCLS broth microdilution MIC, E. faecalis; type: cell-based; conditions: organism C = E. faecalis ATCC 29212; for MIC: Enterococcus faecalis, ATCC29212, read-out: Minimum Inhibitory Concentration (MIC)
Excerpt: as §1

[4] = tested on: E. faecium ATCC 51559; experiment: NCCLS broth microdilution MIC, E. faecium (VRE); type: cell-based, Enterococcus faecium; conditions: organism D = E. faecium ATCC 51559 (VRE)
Excerpt: as §1

[5] = tested on: S. aureus ATCC 13709; experiment: NCCLS broth microdilution MIC, S. aureus (MSSA); type: cell-based, Staphylococcus aureus; conditions: organism E = S. aureus ATCC 13709 (MSSA); for MIC: Staphylococcus aureus, read-out: Minimum Inhibitory Concentration (MIC)
Excerpt: as §1

[6] = tested on: S. aureus ATCC 27660; experiment: NCCLS broth microdilution MIC, S. aureus (MRSA); type: cell-based, Staphylococcus aureus; conditions: organism F = S. aureus ATCC 27660 (MRSA)
Excerpt: as §1

[7] = tested on: S. epidermidis ATCC 12228; experiment: NCCLS broth microdilution MIC, S. epidermidis; type: cell-based, Staphylococcus epidermidis; conditions: organism G = S. epidermidis ATCC 12228
Excerpt: as §1

[8] = tested on: S. pneumoniae ATCC 49619; experiment: NCCLS broth microdilution MIC, S. pneumoniae ATCC 49619; type: cell-based, Streptococcus pneumoniae; conditions: organism H = S. pneumoniae ATCC 49619; for MIC: Streptococcus pneumoniae, ATCC49619, read-out: Minimum Inhibitory Concentration (MIC)
Excerpt: as §1

[9] = tested on: S. pneumoniae ATCC 51422; experiment: NCCLS broth microdilution MIC, S. pneumoniae (PRSP); type: cell-based, Streptococcus pneumoniae; conditions: organism I = S. pneumoniae ATCC 51422 (PRSP)
Excerpt: as §1

[10] = biological target: target sequence AGTACT, 310 base pair dsDNA restriction fragment of Plasmid A; experiment: Quantitative DNase I footprint titration, AGTACT; type: binding; conditions: 310 bp/A, pH 7.0, 22° C., read-out: Dissociation Constant Kd
[11] = biological target: target sequence AATTAATCAT, 352 base pair dsDNA restriction fragment of Plasmid B; experiment: Quantitative DNase I footprint titration, […]; type: binding; conditions: 352 bp/B, pH 7.0, 22° C., read-out: Dissociation Constant Kd
[12] = biological target: target sequence ACAATTAAT, 352 bp fragment of Plasmid B; experiment: Quantitative DNase I footprint titration, […]; type: binding; conditions: 352 bp/B, pH 7.0, 22° C., read-out: Dissociation Constant Kd
[13] = tested on: methicillin resistant Staphylococcus aureus ATCC 33591; experiment: Murine neutropenic thigh model; type: in vivo; conditions: thigh at 6 hr, neutropenic CF1 mice
Description: The suspension was diluted 1:100 in phosphate buffered saline (pH 7.2) for a final concentration of 10^6 cfu/mL.
Outbred female CF1 mice (approx. 20 gram body weight) were rendered neutropenic by treatment with cyclophosphamide (200 mg/kg body weight, intraperitoneal injection) at 2 and 4 days prior to inoculation. Groups of 5 mice were inoculated with 0.05 mL of the bacteria (approx. 10^6 cfu/mL) into the anterior thigh. Each group was treated intravenously two hours post infection with vehicle (phosphate buffered saline) or test compound. The mice were sacrificed at either 6 or 24 hrs after treatment and thighs were collected aseptically. Each thigh was weighed, placed into sterile saline, and homogenized. The tissue homogenates were diluted appropriately for plating on agar plates. Colony counts were recorded (cfu/gram) and compared to control groups.

[14] = 50 mg/kg intravenously two hours post infection

Kd [10]	Minimum Inhibitory Concentration (MIC) [1]	Minimum Inhibitory Concentration (MIC) [2]	Minimum Inhibitory Concentration (MIC) [3]	Minimum Inhibitory Concentration (MIC) [4]	Minimum Inhibitory Concentration (MIC) [5]	Minimum Inhibitory Concentration (MIC) [6]	Minimum Inhibitory Concentration (MIC) [7]	Minimum Inhibitory Concentration (MIC) [8]	Minimum Inhibitory Concentration (MIC) [9]	SMILES	Colony Count (log cfu/gram), Compound [13, 14]	further results
< 100 nM										Cn1cc(NC(=O)c2cc3ccccc3cn2)cc1C(=O)Nc1cc(C(=O)Nc2cc(C(=O)NCCN3CCOCC3)n(CCN3CCOCC3)c2)n(C)c1 [Ib-56]		MIC [1]: < 4 µg/mL; MIC [2]: > 32 µg/mL; MIC [3]: < 4 µg/mL; MIC ([4]; Enterococcus faecium, read-out: Minimum Inhibitory Concentration (MIC)): 4 to 12 µg/mL (≈ 5.33 to 16 µM); MIC [5]: < 4 µg/mL; MIC ([6]; Staphylococcus aureus, read-out: Minimum Inhibitory Concentration (MIC)): < 4 µg/mL; MIC ([7]; Staphylococcus epidermidis, ATCC12228, read-out: Minimum Inhibitory Concentration (MIC)): < 4 µg/mL; MIC [8]: < 4 µg/mL; MIC ([9]; Streptococcus pneumoniae, read-out: Minimum Inhibitory Concentration (MIC)): < 4 µg/mL; Kd [11]: 5 nM
50 nM	+++ (+++ = MIC ≦ 4)	>32 µg/mL	+++ (+++ = MIC ≦ 4)	+++ (+++ = MIC ≦ 4)	+++ (+++ = MIC ≦ 4)	+++ (+++ = MIC ≦ 4)	+++ (+++ = MIC ≦ 4)	+++ (+++ = MIC ≦ 4)	+++ (+++ = MIC ≦ 4)	Cn1cc(NC(=O)c2cc3ccccc3cn2)cc1C(=O)Nc1cc(C(=O)Nc2cc(C(=O)NCCN3CCCCC3)ns2)n(C)c1 [Ib-59]		Kd [12]: 1 nM
10 nM										Cn1cc(NC(=O)c2cc(NC(=O)c3cc(NC(=O)c4cc5ccccc5cn4)no3)cn2C)cc1C(=O)NCCN1CCOCC1 [Ib-60]		MIC [1]: < 4 µg/mL; MIC [2]: > 32 µg/mL; MIC [3]: < 4 µg/mL; MIC [5]: < 4 µg/mL; MIC [8]: < 4 µg/mL; Kd [11]: 5 nM
	+++ (+++ = MIC ≦ 4)	+++ (+++ = MIC ≦ 4)	+++ (+++ = MIC ≦ 4)	++ (++ = 4 < MIC < 12)	+++ (+++ = MIC ≦ 4)	+++ (+++ = MIC ≦ 4)	+++ (+++ = MIC ≦ 4)	+++ (+++ = MIC ≦ 4)	+++ (+++ = MIC ≦ 4)	Cc1cc(NC(=O)c2cc(NC(=O)c3cc(NC(=O)c4cc5ccccc5cn4)cn3C)cn2CCCN(C)C)sn1 [Ib-66]	6.66 log cfu/gram	
	+++ (+++ = MIC ≦ 4)	>32 µg/mL	+++ (+++ = MIC ≦ 4)		+++ (+++ = MIC ≦ 4)	+++ (+++ = MIC ≦ 4)		+++ (+++ = MIC ≦ 4)		Cn1cc(NC(=O)c2cc(NC(=O)c3cc(NC(=O)c4cc5ccccc5cn4)cn3C)c[nH]2)cc1C(=O)NCCN1CCOCC1 [Ib-67]	5.79 log cfu/gram	Colony Count (log cfu/gram), Compound ([13]; 25 mg/kg intravenously two hours post infection): 6.61 log cfu/gram
	+++ (+++ = MIC ≦ 4)	+ (+ = 12 ≦ MIC ≦ 32)	+++ (+++ = MIC ≦ 4)		+++ (+++ = MIC ≦ 4)	+++ (+++ = MIC ≦ 4)		+++ (+++ = MIC ≦ 4)		Cn1cc(NC(=O)c2cc3ccccc3cn2)cc1C(=O)Nc1cc(C(=O)Nc2cc(C(=O)NCCN3CCCCC3)n(CCN3CCCCC3)c2)n(C)c1 [Ib-68]	6.36 log cfu/gram	
	+++ (+++ = MIC ≦ 4)	>32 µg/mL	+++ (+++ = MIC ≦ 4)	+++ (+++ = MIC ≦ 4)	+++ (+++ = MIC ≦ 4)	+++ (+++ = MIC ≦ 4)	+++ (+++ = MIC ≦ 4)	+++ (+++ = MIC ≦ 4)	+++ (+++ = MIC ≦ 4)	Cn1cc(NC(=O)c2ccc(NC(=O)c3cc(NC(=O)c4cc5ccccc5cn4)cn3C)cc2)cc1C(=O)NCCN1CCCCC1 [Ic-13]		
